Reference: patent publication US5733893A, “Method of identifying molecules that regulate FGF activity” (Washington University, priority 1995, dated 1998)
Entries after “also recorded” stand apart in the source; their conditions may differ.

Columns and labels:
[1] = tested on: FGFR1-expressing BaF3 cells; experiment: bFGF mitogenic activity, 3H-thymidine incorporation into FGFR1-expressing BaF3 cells; type: cell-based; conditions: for mitogenic activity with bFGF (in words): FGFR1-expressing BaF3 cells; for Mitogenic activity: relative concentration (wt/vol.) required to incorporate 2 × 10^4 cpm 3H-thymidine into F32 cell DNA: relative to heparin (1.0), ± standard deviation; for mitogenic activity with bFGF (in words) / Mitogenic activity: relative concentration (wt/vol.) required to incorporate 2 × 10^4 cpm 3H-thymidine into F32 cell DNA: bFGF; for fold more active than SOS: FGFR1-expressing BaF3 cell growth with bFGF
Source text: This cell line was used to assay synthetic heparin/HS molecules as potential activators or inhibitors of heparin/HS-dependent mitogenesis (3).

bFGF [2] = biological target: T1, bFGF (Homo sapiens, UniProt P09038); experiment: competition with 125I-heparin binding to bFGF; conditions: for binding to bFGF/FGF (in words): competition with 125I-heparin; for IC50: 4 nM FGF, read-out: IC50 (50% competition for 125I-heparin binding to bFGF) (converted)
T1 construct: purchased Scios Nova
T1 sequence (P09038 134-288): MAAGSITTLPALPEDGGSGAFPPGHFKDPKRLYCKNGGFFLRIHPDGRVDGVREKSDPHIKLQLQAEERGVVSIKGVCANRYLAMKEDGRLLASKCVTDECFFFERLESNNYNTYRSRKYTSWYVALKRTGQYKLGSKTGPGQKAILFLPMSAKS
Experimental: FIG. 2A: Binding of oligosaccharides to bFGF as determined by competition with ^125 I-heparin (30).
(§1) The ability of these small oligosaccharides to compete with the binding on ^125 I-heparin to FGF was also assayed. Heparin iodination was carried out by previously published procedure (30). Heparin binding to FGF was determined by incubating 4 nM FGF with ^125 I-heparin and competitor polysaccharide. Complexes were immunoprecipitated with 1:250 dilutions of monoclonal antibody DG2 (DuPont/Merck) (for bFGF) or a polyclonal antibody (for aFGF), and protein A SEPHAROSE (Sigma Chemical Co.). Washing and quantitation was carried out by procedures previously published for soluble receptor-binding assays (3).
(§2) 12. Heparin iodination was as in (30). Heparin binding to FGF was determined by incubating 4 nM FGF with ^125 I-heparin and competitor polysaccharide. Complexes were immunopredpitated with 1:250 dilutions of monoclonal antibody DG2 (for bFGF) or a polydonal antibody (for aFGF), and protein A sepharose (Sigma). Washing and quantitation was as previously described for soluble receptor binding assays (3).

[3] = tested on: FGFR1-expressing BaF3 cells; experiment: aFGF mitogenic activity, 3H-thymidine incorporation into FGFR1-expressing BaF3 cells; type: cell-based
Source text: Activation of bFGF mitogenic activity as measured by ^3 H-thymidine incorporation into FGFR1-expressing BaF3 cells treated with 150 pM bFGF and increasing concentrations of the indicated oligosaccharides is shown. FIG. 1B.
(§3) The FGFR1-expressing BaF3 cell line was used to assay synthetic heparin/HS molecules as potential activators or inhibitors of heparin/HS-dependent mitogenesis by an assay procedure published previously (3). Such cell lines, which express FGRF1, require heparin/HS and FGF for growth (3). […]
However, their potency relative to that of heparin is less than that observed with bFGF (FIG. 1B).

aFGF = experiment: competition with 125I-heparin binding to aFGF
Experimental: as §1, §2

bFGF-FRAP binding = experiment: binding of 125I-bFGF to soluble receptor FRAP in presence of oligosaccharide; conditions: oligosaccharides 2 μg/ml or increasing concentrations
Experimental: FIG. 2B: Binding of ^125 I-bFGF to FRAP (3), a soluble receptor, in the presence of the indicated oligosaccharide: *, no heparin added; heparin, 50 ng/ml; the remaining oligosaccharides (Di-1 to SOS) were added at a concentration of 2 μg/ml. FGFs were labeled by the Chloramine T method as previously described (31).
(§4) FIG. 2C: Acidic FGF binding to FRAP; FIG. 2D:, basic FGF binding to FRAP. ^125 I-FGFs were incubated with FRAP in the presence of increasing concentrations of heparin or Tri-3; Binding assays were performed as previously described (3).
as §3
Binding of bFGF to a soluble FGFR-alkaline phosphatase fusion protein (FRAP) or to a cell-surface FGFR is enhanced by heparin/HS or by heparin-derived oligosaccharides (8 to 12 sugar residues) (3,4). The ability of heparin/HS-derived di- and tri-saccharides to enhance FGF-FRAP binding in vitro was measured (3).

aFGF binding to FRAP = experiment: binding of 125I-aFGF to soluble receptor FRAP in presence of oligosaccharide; conditions: increasing concentrations
Experimental: as §4, §3

bFGF [4] = biological target: T1, bFGF; experiment: bFGF dimerization by crosslinking and electrophoresis; type: biochemical; conditions: for induction of FGF dimers (in words): crosslinking
Experimental: 670 nM bFGF and 3×10^5 cpm ^125 I-bFGF were incubated with the indicated concentration of (μg/ml) Tri-3 or HS-16. Crosslinking and electrophoresis were performed as previously described (3). Dimer (45 kD) band intensities were quantified by scanning densitometry and plotted above each lane. Molecular weight markers (kD) are shown at the right.

FGF receptors = experiment: dimerization of FGF receptors on BaF3-FGFR1 cells by crosslinking; type: cell-based; conditions: BaF3-FGFR1 cells with FGF-2
Experimental: Binding media (DMEM/0.1% BSA) was supplemented with the indicated concentration of heparin or Tri-3.(*) 200 ng/ml unlabeled FGF-2 added to binding media; Cells were washed once with the same media used for binding, and once with PBS. Crosslinking was as described previously (27).
Crosslinked receptors were electrophoresed on a 5% SDS polyacrylamide gel under reducing condition, and visualized by autoradiography. The lower band corresponds to receptor monomers crosslinked to FGF-2. The upper band corresponds to receptor dimers crosslinked to each other and to FGF-2. Molecular weights (kD) are shown at the right.
Binding media (DMEM/0.1% BSA) was supplemented with the indicated concentration of heparin or Tri-3.(*) 200 ng/ml unlabeled FGF-2 added to binding media; Cells were washed once with the same media used for binding, and once with PBS. Crosslinking was as described previously
Crosslinked receptors were electrophoresed on a 5% SDS polyacrylamide gel under reducing condition, and visualized by autoradiography. The lower band corresponds to receptor monomers crosslinked to FGF-2. The upper band corresponds to receptor dimers crosslinked to each other and to FGF-2.

Structure (SMILES) | mitogenic activity with bFGF (in words) [1] | Mitogenic activity: relative concentration (wt/vol.) required to incorporate 2 × 10^4 cpm 3H-thymidine into F32 cell DNA [1] | binding to bFGF/FGF (in words) (bFGF [2]) | proliferation of FGFR1-expressing BaF3 cells in the presence of aFGF (in words) [3] | IC50 (bFGF [2]) [µM] | binding to aFGF (in words) (aFGF) | enhancement of bFGF-FRAP binding (in words) (bFGF-FRAP binding) | aFGF binding to FRAP (in words) (aFGF binding to FRAP) | optimal concentration for dimerization activity (bFGF [4]; 670 nM bFGF) [µg/mL] | induction of FGF dimers (in words) (bFGF [4]) | dimerization of FGF receptors (in words) (FGF receptors) | fold more active than SOS [1] [fold] | mitogenic activity with bFGF (in words) ([1]; listed as D-3) | mitogenic activity with bFGF (in words) ([1]; listed as D-4)
CO[C@@H]1O[C@H](C(=O)O)[C@@H](O[C@H]2O[C@H](CO)[C@@H](O[C@@H]3O[C@@H](C(=O)O)[C@@H](O)[C@H](O)[C@H]3O)[C@H](O)[C@H]2NS(=O)(=O)O)[C@H](O)[C@H]1O [Tri-2, α-L-IdoA-(1→4)-α-D-GlcNSO3 -(1→4)-β-D-GlcA-1→OMe] | intermediate mitogenic activity; also recorded: lack of activity | 470.6 ± 25.6 | affinity less than that of SOS | – | – | – | – | – | – | – | – | – | – | –
CO[C@@H]1O[C@H](C(=O)O)[C@@H](O[C@H]2O[C@H](CO)[C@@H](O[C@@H]3O[C@@H](C(=O)O)[C@@H](O)[C@H](O)[C@H]3O)[C@H](O)[C@H]2NC(C)=O)[C@H](O)[C@H]1O [Tri-3, α-L-IdoA-(1→4)-α-D-GlcNAc-(1→4)-β-D-GlcA-1→OMe] | active at concentrations comparable to that of heparin; also recorded: higher than expected mitogenic activity; also recorded: the most active compound tested | 3.2 | bind and affinity higher than that of SOS | stimulate the proliferation | 9.87 | bind | enhance bFGF-FRAP binding; also recorded: increases in a dose-dependent manner; also recorded: reproducibly exceeds that with heparin | increases in a dose-dependent manner | 35 | induce FGF dimers as well as higher order oligomers | dimerization of FGF receptors induced | – | – | –
CO[C@H]1O[C@H](CO)[C@@H](O[C@@H]2O[C@@H](C(=O)O)[C@@H](O)[C@H](O)[C@H]2O)[C@H](O)[C@H]1NC(C)=O [Di-1, α-L-IdoA-(1→4)-α-D-GlcNAc-1→OMe] | no activity | – | – | – | – | – | – | – | – | – | – | – | – | –
CO[C@H]1O[C@H](CO)[C@@H](O[C@@H]2O[C@H](C(=O)O)[C@@H](O)[C@H](O)[C@H]2O)[C@H](O)[C@H]1NC(C)=O [Di-3, β-D-GlcA-(1→4)-α-D-GlcNAc-1→OMe] | intermediate mitogenic activity | 26.0 | bind | – | – | bind | enhance bFGF-FRAP binding | – | – | induce FGF dimers as well as higher order oligomers | – | 55 | the most active of the disaccharides | –
CO[C@@H]1O[C@H](C(=O)O)[C@@H](O[C@H]2O[C@H](CO)[C@@H](O)[C@H](O)[C@H]2NC(C)=O)[C@H](O)[C@H]1O [Di-5, D-GlcNAc-(1→4)-β-D-GlcA-1→OMe] | intermediate mitogenic activity | 463.6 | – | – | – | – | – | – | – | – | – | – | – | –
CO[C@H]1O[C@H](CO)[C@@H](O[C@@H]2O[C@H](C(=O)O)[C@@H](O)[C@H](O)[C@H]2O)[C@H](O)[C@H]1NS(=O)(=O)O [Di-4, β-D-GlcA-(1→4)-α-D-GlcNSO3 -1→OMe] | intermediate mitogenic activity | 24.7 | bind | – | – | bind | enhance bFGF-FRAP binding | – | – | – | – | 55 | – | the most active of the disaccharides
CO[C@@H]1O[C@H](C(=O)O)[C@@H](O[C@H]2O[C@H](CO)[C@@H](O[C@@H]3O[C@H](C(=O)O)[C@@H](O)[C@H](O)[C@H]3O)[C@H](O)[C@H]2NC(C)=O)[C@H](O)[C@H]1O [Tri-1, β-D-GlcA-(1→4)-α-D-GlcNAc-(1→4)-β-D-GlcA-1→OMe] | active at concentrations comparable to that of heparin; also recorded: higher than expected mitogenic activity | 1.2 ± 0.2 | bind and affinity higher than that of SOS | stimulate the proliferation | 19.9 | bind | inability of Tri-1 to enhance FGF-FRAP binding | – | – | – | – | – | – | –
CO[C@H]1O[C@H](CO)[C@@H](O[C@@H]2O[C@@H](C(=O)O)[C@@H](O)[C@H](O)[C@H]2O)[C@H](O)[C@H]1NS(=O)(=O)O [Di-2, α-L-IdoA-(1→4)-α-D-GlcNSO3 -1→OMe] | intermediate mitogenic activity; also recorded: higher than expected mitogenic activity | 69.5 ± 9.6 | affinity less than that of SOS | – | – | – | – | – | – | – | – | – | – | –
O=S(=O)(O)OC[C@H]1O[C@@](COS(=O)(=O)O)(O[C@H]2O[C@H](COS(=O)(=O)O)[C@@H](OS(=O)(=O)O)[C@H](OS(=O)(=O)O)[C@H]2OS(=O)(=O)O)[C@@H](OS(=O)(=O)O)[C@@H]1OS(=O)(=O)O [SOS, sucrose octasulfate, reference compound] | minimal biological activity | 1380.8 ± 30.6 | bind | – | 94.6 | bind | – | – | – | – | – | – | – | –
